According to PubChem BioAssay AID192 (DTP/NCI, 2004):
Several values for one entry are separate records, joined by “and”; a condition that tells them apart may be missing. Equal values may be shown once. Inconclusive results and toxic doses are left out.

Test system: BDF1 mice, B16 melanoma ip, median survival T/C
Assay: NCI In Vivo Anticancer Drug Screen. Data for tumor model B16 Melanoma (intraperitoneal) in B6D2F1 (BDF1) mice
Settings: endpoint: median survival time, higher = longer survival
In short: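 Each result divides a survival or tumor-size measurement in the compound-treated group by the same measurement in the vehicle group.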

[1] = dose: 100.0 mg/kg/injection, schedule: Q01DX009 (ip), vehicle: Klucel (hydroxypropylcellulose) (HPC)
[2] = dose: 200.0 mg/kg/injection, schedule: Q01DX009 (ip), vehicle: Klucel (hydroxypropylcellulose) (HPC)
[3] = dose: 100.0 mg/kg/injection, schedule: Q01DX009 (ip), vehicle: saline
[4] = dose: 200.0 mg/kg/injection, schedule: Q01DX009 (ip), vehicle: saline
[5] = dose: 12.5 mg/kg/injection, schedule: Q01DX009 (ip), vehicle: Klucel (hydroxypropylcellulose) (HPC)
[6] = dose: 50.0 mg/kg/injection, schedule: Q01DX009 (ip), vehicle: Klucel (hydroxypropylcellulose) (HPC)
[7] = dose: 25.0 mg/kg/injection, schedule: Q01DX009 (ip), vehicle: Klucel (hydroxypropylcellulose) (HPC)

Question: Which results are given for `[Cl][Mn][Cl]`?
Answer: T/C (dose: 6.25 mg/kg/injection, schedule: Q01DX009 (ip), vehicle: water): 100 % of control; T/C (dose: 12.5 mg/kg/injection, schedule: Q01DX009 (ip), vehicle: water): 98 % of control; T/C (dose: 17.8 mg/kg/injection, schedule: Q01DX009 (ip), vehicle: saline): 104 % of control; T/C (dose: 17.8 mg/kg/injection, schedule: Q01DX009 (sc), vehicle: water): 101 % of control; T/C (dose: 25.0 mg/kg/injection, schedule: Q01DX009 (ip), vehicle: water): 109 % of control; T/C (dose: 26.7 mg/kg/injection, schedule: Q01DX009 (ip), vehicle: saline): 110 % of control and 114 % of control; T/C (dose: 26.7 mg/kg/injection, schedule: Q01DX009 (sc), vehicle: water): 99 % of control; T/C (dose: 40.0 mg/kg/injection, schedule: Q01DX009 (ip), vehicle: saline): 107 % of control and 117 % of control; T/C (dose: 40.0 mg/kg/injection, schedule: Q01DX009 (sc), vehicle: water): 104 % of control; T/C (dose: 50.0 mg/kg/injection, schedule: Q01DX009 (ip), vehicle: water): 114 % of control; T/C (dose: 60.0 mg/kg/injection, schedule: Q01DX009 (ip), vehicle: saline): 106 % of control and 119 % of control; T/C (dose: 60.0 mg/kg/injection, schedule: Q01DX009 (ip), vehicle: water): 163 % of control; T/C (dose: 60.0 mg/kg/injection, schedule: Q01DX009 (sc), vehicle: water): 104 % of control; T/C (dose: 90.0 mg/kg/injection, schedule: Q01DX009 (sc), vehicle: water): 104 % of control

Question: With `CC(=O)N/C(=C/c1ccccc1)C(=O)O` as the compound, how does the T/C [1] read?
Answer: The T/C was 94 % of control.

Question: What about the T/C (dose: 100.0 mg/kg/injection, schedule: Q04DX003 (ip), vehicle: Klucel (hydroxypropylcellulose) (HPC)) of the same compound?
Answer: The T/C was 93 % of control.

Question: And the T/C [2]?
Answer: The T/C was 108 % of control.

Question: What about the T/C (dose: 200.0 mg/kg/injection, schedule: Q04DX003 (ip), vehicle: Klucel (hydroxypropylcellulose) (HPC)) of the same compound?
Answer: Its T/C is 86 % of control.

Question: What about the T/C (dose: 400.0 mg/kg/injection, schedule: Q01DX009 (ip), vehicle: Klucel (hydroxypropylcellulose) (HPC)) of the same compound?
Answer: Its T/C is 97 % of control.

Question: What about the T/C (dose: 400.0 mg/kg/injection, schedule: Q04DX003 (ip), vehicle: Klucel (hydroxypropylcellulose) (HPC)) of the same compound?
Answer: The T/C was 90 % of control.

Question: `O=c1n[n+]([O-])ccn1C1OC(CO)C(O)C1O` (configuration not stated) was tested. Which T/C (dose: 25.0 mg/kg/injection, schedule: Q01DX009 (ip), vehicle: saline) did it give?
Answer: The T/C was 92 % of control and 108 % of control.

Question: And the T/C (dose: 50.0 mg/kg/injection, schedule: Q01DX009 (ip), vehicle: saline)?
Answer: The T/C was 102 % of control and 115 % of control.

Question: And the T/C [3]?
Answer: Its T/C is 115 % of control and 120 % of control.

Question: And the T/C [4]?
Answer: The T/C was 122 % of control.

Question: Which results are given for `CC12CCC(O)CC1CCC1C2CCC2(C)C(c3ccc(=O)oc3)CC3OC312` (configuration not stated)?
Answer: T/C (dose: 0.31 mg/kg/injection, schedule: Q01DX009 (ip), vehicle: saline with Tween-80): 102 % of control; T/C (dose: 0.62 mg/kg/injection, schedule: Q01DX009 (ip), vehicle: saline with Tween-80): 94 % of control; T/C (dose: 1.25 mg/kg/injection, schedule: Q01DX009 (ip), vehicle: saline with Tween-80): 95 % of control; T/C (dose: 2.5 mg/kg/injection, schedule: Q01DX009 (ip), vehicle: saline with Tween-80): 98 % of control; T/C (dose: 5.0 mg/kg/injection, schedule: Q01DX009 (ip), vehicle: saline with Tween-80): 100 % of control; T/C (dose: 10.0 mg/kg/injection, schedule: Q01DX009 (ip), vehicle: saline with Tween-80): 95 % of control

Question: What does the source list for `CNC1C(OC2C(OC3C(O)C(O)C(N=C(N)N)C(O)C3N=C(N)N)OC(C)C2(O)C=O)OC(CO)C(O)C1O` (configuration not stated)?
Answer: T/C (dose: 100.0 mg/kg/injection, schedule: Q01DX009 (ip), vehicle: water): 110 % of control; T/C (dose: 200.0 mg/kg/injection, schedule: Q01DX009 (ip), vehicle: water): 108 % of control

Question: Which results are given for `CCCCCCOP(=O)(CCCCCC)OCCCCCC`?
Answer: T/C [5]: 91 % of control; T/C [6]: 94 % of control; T/C [1]: 97 % of control

Question: With `COc1cc2c(cc1OC)C(CCc1ccc(Cl)cc1)N(C)CC2` (configuration not stated) as the compound, how does the T/C [7] read?
Answer: Its T/C is 88 % of control.

Question: What about the T/C [6] of the same compound?
Answer: Its T/C is 93 % of control.

Question: What about the T/C [1] of the same compound?
Answer: Its T/C is 98 % of control.

Question: What about the T/C [2] of the same compound?
Answer: The T/C was 93 % of control.

Question: Which T/C [3] does the source give for `CC(=O)CC(=O)N1CCN(C(=O)CC(C)=O)CC1` here?
Answer: The T/C was 87 % of control.

Question: What about the T/C [4] of the same compound?
Answer: Its T/C is 87 % of control.

Question: And the T/C (dose: 400.0 mg/kg/injection, schedule: Q01DX009 (ip), vehicle: saline)?
Answer: Its T/C is 91 % of control.

Question: With `CCC[CH2][Sn](=[S])[CH2]CCC` as the compound, how does the T/C (dose: 0.78 mg/kg/injection, schedule: Q01DX009 (ip), vehicle: saline) read?
Answer: The T/C was 98 % of control.

Question: What about the T/C (dose: 1.56 mg/kg/injection, schedule: Q01DX009 (ip), vehicle: saline) of the same compound?
Answer: Its T/C is 102 % of control.

Question: And the T/C (dose: 6.25 mg/kg/injection, schedule: Q01DX009 (ip), vehicle: other)?
Answer: Its T/C is 97 % of control.

Question: What about the T/C (dose: 6.25 mg/kg/injection, schedule: Q01DX009 (ip), vehicle: saline with Tween-80) of the same compound?
Answer: The T/C was 109 % of control.

Question: And the T/C (dose: 6.25 mg/kg/injection, schedule: Q01DX009 (ip), vehicle: saline)?
Answer: The T/C was 107 % of control.

Question: And the T/C (dose: 6.25 mg/kg/injection, schedule: Q04DX003 (ip), vehicle: other)?
Answer: Its T/C is 105 % of control.

Question: Which results are given for `C[n+]1ccc(Nc2ccc(NC(=O)c3ccc(Nc4cc[n+](C)c5ccc(N)cc45)cc3)cc2)cc1`?
Answer: T/C (dose: 0.5 mg/kg/injection, schedule: Q01DX009 (ip), vehicle: Klucel (hydroxypropylcellulose) (HPC)): 105 % of control; T/C (dose: 1.0 mg/kg/injection, schedule: Q01DX009 (ip), vehicle: Klucel (hydroxypropylcellulose) (HPC)): 98 % of control and 101 % of control; T/C (dose: 1.0 mg/kg/injection, schedule: Q02DX009 (ip), vehicle: Klucel (hydroxypropylcellulose) (HPC)): 100 % of control and 116 % of control; T/C (dose: 2.0 mg/kg/injection, schedule: Q01DX009 (ip), vehicle: Klucel (hydroxypropylcellulose) (HPC)): 105 % of control and 108 % of control and 111 % of control; T/C (dose: 2.0 mg/kg/injection, schedule: Q02DX009 (ip), vehicle: Klucel (hydroxypropylcellulose) (HPC)): 106 % of control and 112 % of control; T/C (dose: 4.0 mg/kg/injection, schedule: Q01DX009 (ip), vehicle: Klucel (hydroxypropylcellulose) (HPC)): 103 % of control and 111 % of control and 120 % of control; T/C (dose: 4.0 mg/kg/injection, schedule: Q02DX009 (ip), vehicle: Klucel (hydroxypropylcellulose) (HPC)): 109 % of control and 112 % of control; T/C (dose: 8.0 mg/kg/injection, schedule: Q01DX009 (ip), vehicle: Klucel (hydroxypropylcellulose) (HPC)): 109 % of control and 123 % of control and 124 % of control; T/C (dose: 8.0 mg/kg/injection, schedule: Q02DX009 (ip), vehicle: Klucel (hydroxypropylcellulose) (HPC)): 107 % of control and 118 % of control; T/C (dose: 16.0 mg/kg/injection, schedule: Q02DX009 (ip), vehicle: Klucel (hydroxypropylcellulose) (HPC)): 98 % of control and 110 % of control

Question: With `CCOC(=O)c1ccc(NC(=O)Nc2nccs2)cc1` as the compound, how does the T/C (dose: 6.25 mg/kg/injection, schedule: Q01DX009 (ip), vehicle: Klucel (hydroxypropylcellulose) (HPC)) read?
Answer: The T/C was 102 % of control.

Question: What about the T/C (dose: 6.25 mg/kg/injection, schedule: Q01DX009 (oral), vehicle: Klucel (hydroxypropylcellulose) (HPC)) of the same compound?
Answer: Its T/C is 113 % of control.

Question: What about the T/C [5] of the same compound?
Answer: The T/C was 99 % of control.

Question: And the T/C (dose: 12.5 mg/kg/injection, schedule: Q01DX009 (ip), vehicle: saline with Tween-80)?
Answer: Its T/C is 110 % of control.

Question: What about the T/C (dose: 12.5 mg/kg/injection, schedule: Q01DX009 (oral), vehicle: Klucel (hydroxypropylcellulose) (HPC)) of the same compound?
Answer: Its T/C is 108 % of control.

Question: What about the T/C (dose: 12.5 mg/kg/injection, schedule: Q01DX009 (oral), vehicle: saline with Tween-80) of the same compound?
Answer: The T/C was 107 % of control.

Question: What about the T/C [7] of the same compound?
Answer: Its T/C is 96 % of control.

Question: And the T/C (dose: 25.0 mg/kg/injection, schedule: Q01DX009 (oral), vehicle: Klucel (hydroxypropylcellulose) (HPC))?
Answer: Its T/C is 110 % of control.

Question: What about the T/C (dose: 25.0 mg/kg/injection, schedule: Q01DX009 (oral), vehicle: saline with Tween-80) of the same compound?
Answer: The T/C was 109 % of control.

Question: What about the T/C [6] of the same compound?
Answer: The T/C was 96 % of control.

Question: What about the T/C (dose: 50.0 mg/kg/injection, schedule: Q01DX009 (oral), vehicle: Klucel (hydroxypropylcellulose) (HPC)) of the same compound?
Answer: Its T/C is 119 % of control.

Question: What about the T/C (dose: 50.0 mg/kg/injection, schedule: Q01DX009 (oral), vehicle: saline with Tween-80) of the same compound?
Answer: The T/C was 106 % of control.

Question: And the T/C [1]?
Answer: Its T/C is 114 % of control.

Question: And the T/C (dose: 100.0 mg/kg/injection, schedule: Q01DX009 (oral), vehicle: Klucel (hydroxypropylcellulose) (HPC))?
Answer: The T/C was 102 % of control.

Question: What about the T/C (dose: 100.0 mg/kg/injection, schedule: Q01DX009 (oral), vehicle: saline with Tween-80) of the same compound?
Answer: The T/C was 119 % of control.

Question: And the T/C [2]?
Answer: The T/C was 113 % of control.

Question: And the T/C (dose: 200.0 mg/kg/injection, schedule: Q01DX009 (oral), vehicle: Klucel (hydroxypropylcellulose) (HPC))?
Answer: The T/C was 99 % of control.

Question: What about the T/C (dose: 200.0 mg/kg/injection, schedule: Q01DX009 (oral), vehicle: saline with Tween-80) of the same compound?
Answer: The T/C was 112 % of control.

Question: And the T/C (dose: 400.0 mg/kg/injection, schedule: Q01DX009 (oral), vehicle: saline with Tween-80)?
Answer: Its T/C is 110 % of control.
